Measured values taken from PubChem BioAssay (NCI).
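Dose response: 5 concentrations. Exposure: 48 h. Format: 96-well plates. Endpoint: linear interpolation; highest concentration if not reached. TGI denotes the concentration required for complete inhibition of growth.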

Columns and labels:
Experiment in all cases: NCI anticancer screen, dose series, 48 h
UACC-257 melanoma = system: UACC-257 melanoma
CAKI-1 renal = system: CAKI-1 renal
HCT-116 colon = system: HCT-116 colon
NCI/ADR-RES ovarian = system: NCI/ADR-RES ovarian
SK-MEL-5 melanoma = system: SK-MEL-5 melanoma
HS 578T breast = system: HS 578T breast
M14 melanoma = system: M14 melanoma
HT29 colon = system: HT29 colon
SNB-19 CNS = system: SNB-19 CNS
RPMI-8226 leukemia = system: RPMI-8226 leukemia
SR leukemia = system: SR leukemia
MCF7 breast = system: MCF7 breast
TK-10 renal = system: TK-10 renal
A498 renal = system: A498 renal
HOP-62 NSCLC = system: HOP-62 NSCLC
MDA-N = system: MDA-N
NCI-H460 lung = system: NCI-H460 lung
SNB-75 CNS = system: SNB-75 CNS
DU-145 prostate = system: DU-145 prostate
NCI-H226 lung = system: NCI-H226 lung
MOLT-4 leukemia = system: MOLT-4 leukemia
SK-OV-3 ovarian = system: SK-OV-3 ovarian
SK-MEL-28 melanoma = system: SK-MEL-28 melanoma
RXF 393 renal = system: RXF 393 renal
MALME-3M melanoma = system: MALME-3M melanoma
A549 NSCLC = system: A549 NSCLC
MDA-MB-435 = system: MDA-MB-435
SN12C renal = system: SN12C renal
UACC-62 melanoma = system: UACC-62 melanoma
IGROV1 ovarian = system: IGROV1 ovarian
OVCAR-5 ovarian = system: OVCAR-5 ovarian
LOX IMVI melanoma = system: LOX IMVI melanoma
SK-MEL-2 melanoma = system: SK-MEL-2 melanoma
KM12 colon = system: KM12 colon
786-0 renal = system: 786-0 renal
COLO 205 colon = system: COLO 205 colon
SF-295 CNS = system: SF-295 CNS
HCC-2998 colon = system: HCC-2998 colon
SW-620 colon = system: SW-620 colon
ACHN renal = system: ACHN renal
U251 CNS = system: U251 CNS
MDA-MB-231 breast = system: MDA-MB-231 breast
K-562 leukemia = system: K-562 leukemia
NCI-H522 lung = system: NCI-H522 lung
OVCAR-4 ovarian = system: OVCAR-4 ovarian
UO-31 renal = system: UO-31 renal
CCRF-CEM leukemia = system: CCRF-CEM leukemia
EKVX NSCLC = system: EKVX NSCLC
SF-539 CNS = system: SF-539 CNS
OVCAR-8 ovarian = system: OVCAR-8 ovarian
HOP-92 NSCLC = system: HOP-92 NSCLC
HCT-15 colon = system: HCT-15 colon
BT-549 breast = system: BT-549 breast
T-47D breast = system: T-47D breast
NCI-H23 lung = system: NCI-H23 lung
SF-268 CNS = system: SF-268 CNS
PC-3 prostate = system: PC-3 prostate
OVCAR-3 ovarian = system: OVCAR-3 ovarian
HL-60(TB) leukemia = system: HL-60(TB) leukemia

With CCOC(=O)/C=C/C1OC(C)(C)OC1/C=C/C(=O)OCC (stereo not given) the TGI (UACC-257 melanoma) was greater than 100 µM, the TGI (CAKI-1 renal) was 54.7 µM and the TGI (HCT-116 colon) was greater than 100 µM. It also gave a TGI (NCI/ADR-RES ovarian) greater than 100 µM, a TGI (SK-MEL-5 melanoma) greater than 100 µM and a TGI (HS 578T breast) greater than 100 µM. It also gave a TGI (M14 melanoma) greater than 100 µM, a TGI (HT29 colon) of 57.6 µM and a TGI (SNB-19 CNS) greater than 100 µM. It also gave a TGI (RPMI-8226 leukemia) of 47.7 µM, a TGI (SR leukemia) of 43.3 µM and a TGI (MCF7 breast) greater than 100 µM. It also gave a TGI (TK-10 renal) greater than 100 µM, a TGI (A498 renal) greater than 100 µM and a TGI (HOP-62 NSCLC) greater than 100 µM. The TGI (MDA-N) was greater than 100 µM, the TGI (NCI-H460 lung) was 48.9 µM and the TGI (SNB-75 CNS) was greater than 100 µM. It also gave a TGI (DU-145 prostate) greater than 100 µM, a TGI (NCI-H226 lung) greater than 100 µM and a TGI (MOLT-4 leukemia) of 63.3 µM. For the same molecule, the TGI (SK-OV-3 ovarian) was greater than 100 µM, the TGI (SK-MEL-28 melanoma) was 87.7 µM and the TGI (RXF 393 renal) was greater than 100 µM. It also gave a TGI (MALME-3M melanoma) greater than 100 µM, a TGI (A549 NSCLC) greater than 100 µM and a TGI (MDA-MB-435) greater than 100 µM. The TGI (SN12C renal) was greater than 100 µM, the TGI (UACC-62 melanoma) was greater than 100 µM and the TGI (IGROV1 ovarian) was greater than 100 µM. The TGI (OVCAR-5 ovarian) was greater than 100 µM, the TGI (LOX IMVI melanoma) was greater than 100 µM and the TGI (SK-MEL-2 melanoma) was greater than 100 µM. It also gave a TGI (KM12 colon) of 70.7 µM, a TGI (786-0 renal) greater than 100 µM and a TGI (COLO 205 colon) greater than 100 µM. It also gave a TGI (SF-295 CNS) greater than 100 µM, a TGI (HCC-2998 colon) of 47.4 µM and a TGI (SW-620 colon) of 49.2 µM. It also gave a TGI (ACHN renal) greater than 100 µM, a TGI (U251 CNS) greater than 100 µM and a TGI (MDA-MB-231 breast) greater than 100 µM. The TGI (K-562 leukemia) was 48.4 µM, the TGI (NCI-H522 lung) was 51.1 µM and the TGI (OVCAR-4 ovarian) was greater than 100 µM. The TGI (UO-31 renal) was greater than 100 µM, the TGI (CCRF-CEM leukemia) was 57.7 µM and the TGI (EKVX NSCLC) was 94.9 µM. The TGI (SF-539 CNS) was greater than 100 µM, the TGI (OVCAR-8 ovarian) was 82.7 µM and the TGI (HOP-92 NSCLC) was 41.8 µM. It also gave a TGI (HCT-15 colon) of 64.2 µM, a TGI (BT-549 breast) greater than 100 µM and a TGI (T-47D breast) greater than 100 µM. It also gave a TGI (NCI-H23 lung) greater than 100 µM, a TGI (SF-268 CNS) greater than 100 µM and a TGI (PC-3 prostate) greater than 100 µM.

O=C(O)CCC1(C(=O)O)CCC(=O)c2ccccc21 (stereo not given) showed a TGI (UACC-257 melanoma) greater than 100 µM, a TGI (CAKI-1 renal) greater than 100 µM and a TGI (HCT-116 colon) greater than 100 µM. The TGI (NCI/ADR-RES ovarian) was greater than 100 µM, the TGI (SK-MEL-5 melanoma) was greater than 100 µM and the TGI (HS 578T breast) was greater than 100 µM. For the same molecule, the TGI (M14 melanoma) was greater than 100 µM, the TGI (HT29 colon) was greater than 100 µM and the TGI (OVCAR-3 ovarian) was greater than 100 µM. The TGI (SNB-19 CNS) was greater than 100 µM, the TGI (RPMI-8226 leukemia) was greater than 100 µM and the TGI (SR leukemia) was greater than 100 µM. It also gave a TGI (MCF7 breast) greater than 100 µM, a TGI (TK-10 renal) greater than 100 µM and a TGI (A498 renal) greater than 100 µM. For the same molecule, the TGI (HOP-62 NSCLC) was greater than 100 µM, the TGI (MDA-N) was greater than 100 µM and the TGI (NCI-H460 lung) was greater than 100 µM. It also gave a TGI (SNB-75 CNS) greater than 100 µM, a TGI (DU-145 prostate) greater than 100 µM and a TGI (NCI-H226 lung) greater than 100 µM. The TGI (SK-OV-3 ovarian) was greater than 100 µM, the TGI (SK-MEL-28 melanoma) was greater than 100 µM and the TGI (RXF 393 renal) was greater than 100 µM. The TGI (MALME-3M melanoma) was greater than 100 µM, the TGI (A549 NSCLC) was greater than 100 µM and the TGI (MDA-MB-435) was greater than 100 µM. The TGI (SN12C renal) was greater than 100 µM, the TGI (UACC-62 melanoma) was greater than 100 µM and the TGI (IGROV1 ovarian) was greater than 100 µM. The TGI (OVCAR-5 ovarian) was greater than 100 µM, the TGI (LOX IMVI melanoma) was greater than 100 µM and the TGI (SK-MEL-2 melanoma) was greater than 100 µM. The TGI (KM12 colon) was greater than 100 µM, the TGI (786-0 renal) was greater than 100 µM and the TGI (COLO 205 colon) was greater than 100 µM. It also gave a TGI (SF-295 CNS) greater than 100 µM, a TGI (HCC-2998 colon) greater than 100 µM and a TGI (SW-620 colon) greater than 100 µM. The TGI (ACHN renal) was greater than 100 µM, the TGI (U251 CNS) was greater than 100 µM and the TGI (MDA-MB-231 breast) was greater than 100 µM. For the same molecule, the TGI (K-562 leukemia) was greater than 100 µM, the TGI (NCI-H522 lung) was greater than 100 µM and the TGI (OVCAR-4 ovarian) was greater than 100 µM. The TGI (UO-31 renal) was greater than 100 µM, the TGI (CCRF-CEM leukemia) was greater than 100 µM and the TGI (SF-539 CNS) was greater than 100 µM. The TGI (OVCAR-8 ovarian) was greater than 100 µM, the TGI (HL-60(TB) leukemia) was greater than 100 µM and the TGI (HOP-92 NSCLC) was greater than 100 µM. For the same molecule, the TGI (HCT-15 colon) was greater than 100 µM, the TGI (BT-549 breast) was greater than 100 µM and the TGI (T-47D breast) was greater than 100 µM. For the same molecule, the TGI (NCI-H23 lung) was greater than 100 µM, the TGI (SF-268 CNS) was greater than 100 µM and the TGI (PC-3 prostate) was greater than 100 µM.

CC(C)C(=O)NCC[C@@H](CNC(=O)OC(C)(C)C)NC(=O)OC(C)(C)C was tested, and the TGI (UACC-257 melanoma) was greater than 100 µM, the TGI (CAKI-1 renal) was greater than 100 µM and the TGI (HCT-116 colon) was greater than 100 µM. It also gave a TGI (NCI/ADR-RES ovarian) greater than 100 µM, a TGI (SK-MEL-5 melanoma) greater than 100 µM and a TGI (HS 578T breast) greater than 100 µM. It also gave a TGI (M14 melanoma) greater than 100 µM, a TGI (HT29 colon) greater than 100 µM and a TGI (OVCAR-3 ovarian) greater than 100 µM. The TGI (SNB-19 CNS) was greater than 100 µM, the TGI (SR leukemia) was greater than 100 µM and the TGI (MCF7 breast) was greater than 100 µM. The TGI (TK-10 renal) was greater than 100 µM, the TGI (A498 renal) was greater than 100 µM and the TGI (HOP-62 NSCLC) was greater than 100 µM. It also gave a TGI (MDA-N) greater than 100 µM, a TGI (NCI-H460 lung) greater than 100 µM and a TGI (SNB-75 CNS) greater than 100 µM. It also gave a TGI (DU-145 prostate) greater than 100 µM, a TGI (NCI-H226 lung) greater than 100 µM and a TGI (MOLT-4 leukemia) greater than 100 µM. It also gave a TGI (SK-OV-3 ovarian) greater than 100 µM, a TGI (SK-MEL-28 melanoma) greater than 100 µM and a TGI (RXF 393 renal) greater than 100 µM. It also gave a TGI (MALME-3M melanoma) greater than 100 µM, a TGI (A549 NSCLC) greater than 100 µM and a TGI (MDA-MB-435) greater than 100 µM. It also gave a TGI (SN12C renal) greater than 100 µM, a TGI (UACC-62 melanoma) greater than 100 µM and a TGI (IGROV1 ovarian) greater than 100 µM. The TGI (OVCAR-5 ovarian) was greater than 100 µM, the TGI (SK-MEL-2 melanoma) was greater than 100 µM and the TGI (KM12 colon) was greater than 100 µM. For the same molecule, the TGI (786-0 renal) was greater than 100 µM, the TGI (COLO 205 colon) was greater than 100 µM and the TGI (SF-295 CNS) was greater than 100 µM. For the same molecule, the TGI (HCC-2998 colon) was greater than 100 µM, the TGI (SW-620 colon) was greater than 100 µM and the TGI (ACHN renal) was greater than 100 µM. The TGI (U251 CNS) was greater than 100 µM, the TGI (MDA-MB-231 breast) was greater than 100 µM and the TGI (K-562 leukemia) was greater than 100 µM. The TGI (NCI-H522 lung) was greater than 100 µM, the TGI (OVCAR-4 ovarian) was greater than 100 µM and the TGI (UO-31 renal) was greater than 100 µM. It also gave a TGI (CCRF-CEM leukemia) greater than 100 µM, a TGI (EKVX NSCLC) greater than 100 µM and a TGI (SF-539 CNS) greater than 100 µM. The TGI (OVCAR-8 ovarian) was greater than 100 µM, the TGI (HOP-92 NSCLC) was greater than 100 µM and the TGI (HCT-15 colon) was greater than 100 µM. It also gave a TGI (BT-549 breast) greater than 100 µM, a TGI (T-47D breast) greater than 100 µM and a TGI (NCI-H23 lung) greater than 100 µM. The TGI (SF-268 CNS) was greater than 100 µM and the TGI (PC-3 prostate) was greater than 100 µM.
